Laboratory results: US6503926B2, “Chemokine receptor antagonists and methods of use therefor” (Millennium Pharmaceuticals, Inc., priority 1998, dated 2003)

Target: T1, THP-1 cell membranes (RANTES / MIP-1α binding; chemokine receptor, believed CCR1) (Homo sapiens, UniProt P32246)
T1 sequence (P32246 1-355): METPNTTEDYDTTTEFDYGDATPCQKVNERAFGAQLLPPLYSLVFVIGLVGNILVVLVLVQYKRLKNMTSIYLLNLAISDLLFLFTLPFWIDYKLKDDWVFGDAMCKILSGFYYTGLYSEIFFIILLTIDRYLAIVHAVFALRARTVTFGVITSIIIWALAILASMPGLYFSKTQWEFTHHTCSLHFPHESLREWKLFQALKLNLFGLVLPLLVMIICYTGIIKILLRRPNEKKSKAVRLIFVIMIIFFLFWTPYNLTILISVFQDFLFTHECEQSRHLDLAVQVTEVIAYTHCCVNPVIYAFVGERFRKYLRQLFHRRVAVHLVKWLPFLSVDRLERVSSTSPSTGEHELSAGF
Test: Receptor binding assay, 125I-RANTES or 125I-MIP-1α binding to THP-1 cell membranes
Details: 125I-RANTES or 125I-MIP-1α as ligand, 60 min at room temperature, read-out: IC50 (inhibitor concentration required for 50% inhibition of specific binding)
Procedure: Membranes were prepared from THP-1 cells (ATCC #TIB202). Cells were harvested by centrifugation, washed twice with PBS (phosphate-buffered saline), and the cell pellets were frozen at -70 to -85° C. The frozen pellet was thawed in ice-cold lysis buffer consisting of 5 mM HEPES (N-2-hydroxyethylpiperazine-N'-2-ethane-sulfonic acid) pH 7.5, 2 mM EDTA (ethylenediaminetetraacetic acid), 5 μg/ml each aprotinin, leupeptin, and chymostatin (protease inhibitors), and 100 μg/ml PMSF (phenyl methane sulfonyl fluoride-also a protease inhibitor), at a concentration of 1 to 5×10^7 cells/ml. This procedure results in cell lysis. The suspension was mixed well to resuspend all of the frozen cell pellet. Nuclei and cell debris were removed by centrifugation of 400×g for 10 minutes at 4° C. The supernatant was transferred to a fresh tube and the membrane fragments were collected by centrifugation at 25,000×g for 30 minutes at 4° C. The supernatant was aspirated and the pellet was resuspended in freezing buffer consisting of 10 mM HEPES pH 7.5, 300 mM sucrose, 1 μg/ml each aprotinin, leupeptin, and chymostatin, and 10 μg/ml PMSF (approximately 0.1 ml per each 10^8 cells). All clumps were resolved using a minihomogenizer, and the total protein concentration was determined using a protein assay kit (Bio-Rad, Hercules, Calif., cat #500-0002). The membrane solution was then aliquoted and frozen at -70 to -85° C. until needed. Binding Assays-utilized the membranes described above. Membrane protein (2 to 20 μg total membrane protein) was incubated with 0.1 to 0.2 nM ^125I-labeled RANTES or MIP-1α with or without unlabeled competitor (RANTES or MIP-1α) or various concentrations of compounds. The binding reactions were performed in 60 to 100 μl of a binding buffer consisting of 10 mM HEPES pH 7.2, 1 mM CaCl2, 5 mM MgCl2, and 0.5% BSA (bovine serum albumin), for 60 min at room temperature. The binding reactions were terminated by harvesting the membranes by rapid filtration through glass fiber filters (GF/B or GF/C, Packard) which were presoaked in 0.3% polyethyleneimine. The filters were rinsed with approximately 600 μl of binding buffer containing 0.5 M NaCl, dried, and the amount of bound radioactivity was determined by scintillation counting in a Topcount beta-plate counter. […] Specific binding is defined as the total binding minus the non-specific binding; non-specific binding is the amount of cpm still detected in the presence of excess unlabeled Rantes or ^125MIP-1α.

SMILES	IC50 [nM]
COc1cccc(C(=CCCN2CCC(O)(c3ccc(Cl)cc3)CC2)c2cccnc2)c1 [Example 1, 4-(4-Chlorophenyl)-1-[4-(3-methoxyphenyl)-4-(3-pyridinyl)-3-butenyl]piperidin-4-ol]	< 1000
OC1(c2ccc(Cl)cc2)CCN(CCC=C(c2ccccc2)c2cccnc2)CC1 [Example 2, 4-(4-Chlorophenyl)-1-[4-phenyl-4-(3-pyridinyl)-3-butenyl]piperidin-4-ol]	< 1000
COc1ccc(OC)c(C(=CCCN2CCC(O)(c3ccc(Cl)cc3)CC2)c2cccnc2)c1 [Example 3, 4-(4-Chlorophenyl)-1-[4-(2,5-dimethoxyphenyl)-4-(3-pyridinyl)-3-butenyl]piperidin-4-ol]	< 1000
OC1(c2ccc(Cl)cc2)CCN(CCC=C(c2cccnc2)c2ccnc(Br)c2)CC1 [Example 4, 1-[4-(2-Bromo-4-pyridinyl)-4-(3-pyridinyl)-3-butenyl]-4-(4-chlorophenyl)piperidin-4-ol]	> 1000
